In ChEMBL document CHEMBL2029327, “Synthetic menthyl α/β-(1→6)-diglucopyranosides-induced cell death in human leukemia cells is dependent on caspases” (Bioorg Med Chem Lett, 2012):
Calls of active or inactive are those of the source. The rule behind the calls is not given here.

Assays:
HL-60 [1] = assay: Cytotoxicity against human HL60 cells after 72 hrs by MTT assay; type: functional, cell-based; settings: for IC50: HL-60, 72 h
U-937 [2] = assay: Cytotoxicity against human U937 cells after 72 hrs by MTT assay; type: functional, cell-based; settings: for IC50: U-937, 72 h
MOLT-3 [3] = assay: Cytotoxicity against human MOLT3 cells after 72 hrs by MTT assay; type: functional, cell-based; settings: for IC50: MOLT-3, 72 h
MCF7 [4] = assay: Cytotoxicity against human MCF7 cells after 72 hrs by MTT assay; type: functional, cell-based; settings: for IC50: MCF7, 72 h
HL-60 [5] = assay: Cytotoxicity against human HL60 cells assessed as morphological changes at 10 uM after 24 hrs by inverted phase-contrast microscopic analysis; type: functional, cell-based
U-937 [6] = assay: Cytotoxicity against human U937 cells assessed as morphological changes at 10 uM after 24 hrs by inverted phase-contrast microscopic analysis; type: functional, cell-based
MOLT-3 [7] = assay: Cytotoxicity against human MOLT3 cells assessed as morphological changes at 10 uM after 24 hrs by inverted phase-contrast microscopic analysis; type: functional, cell-based
MCF7 [8] = assay: Cytotoxicity against human MCF7 cells assessed as morphological changes at 10 uM after 24 hrs by inverted phase-contrast microscopic analysis; type: functional, cell-based
HL-60 [9] = assay: Cytotoxicity against human HL60 cells assessed as reduction in cell number at 10 uM after 24 hrs by inverted phase-contrast microscopic analysis; type: functional, cell-based
U-937 [10] = assay: Cytotoxicity against human U937 cells assessed as reduction in cell number at 10 uM after 24 hrs by inverted phase-contrast microscopic analysis; type: functional, cell-based
MOLT-3 [11] = assay: Cytotoxicity against human MOLT3 cells assessed as reduction in cell number at 10 uM after 24 hrs by inverted phase-contrast microscopic analysis; type: functional, cell-based
HL-60 [12] = assay: Induction of apoptosis in human HL60 cells assessed as increase in chromatin condensation at 10 uM after 24 hrs by Hoechst staining-based flow cytometric analysis; type: functional, cell-based
U-937 [13] = assay: Induction of apoptosis in human U937 cells assessed as increase in chromatin condensation at 10 uM after 24 hrs by Hoechst staining-based flow cytometric analysis; type: functional, cell-based
HL-60 [14] = assay: Induction of apoptosis in human HL60 cells assessed as […] hydrolysis of chromatin at 10 uM after 24 hrs by agarose gel electrophoretic analysis; type: functional, cell-based
MOLT-3 [15] = assay: Induction of apoptosis in human MOLT3 cells assessed as increase in chromatin condensation at 10 uM after 24 hrs by Hoechst staining-based flow cytometric analysis; type: functional, cell-based
U-937 [16] = assay: Induction of apoptosis in human U937 cells assessed as […] hydrolysis of chromatin at 10 uM after 24 hrs by agarose gel electrophoretic analysis; type: functional, cell-based
MOLT-3 [17] = assay: Induction of apoptosis in human MOLT3 cells assessed as […] hydrolysis of chromatin at 10 uM after 24 hrs by agarose gel electrophoretic analysis; type: functional, cell-based
HL-60 [18] = assay: Induction of apoptosis in human HL60 cells assessed as increase in apoptotic cells at 30 uM after 24 hrs by propidium iodide staining-based flow cytometric analysis relative to control; type: functional
U-937 [19] = assay: Induction of apoptosis in human U937 cells assessed as increase in apoptotic cells at 30 uM after 24 hrs by propidium iodide staining-based flow cytometric analysis relative to control; type: functional
HL-60 [20] = assay: Induction of apoptosis in human HL60 cells assessed as cleavage of procaspase 3 at 10 to 30 uM after 24 hrs by Western blot analysis; type: functional, cell-based
U-937 [21] = assay: Induction of apoptosis in human U937 cells assessed as cleavage of procaspase 3 at 10 to 30 uM after 24 hrs by Western blot analysis; type: functional, cell-based
HL-60 [22] = assay: Induction of apoptosis in human HL60 cells assessed as cleavage of procaspase 6 at 10 to 30 uM after 24 hrs by Western blot analysis; type: functional, cell-based
U-937 [23] = assay: Induction of apoptosis in human U937 cells assessed as cleavage of procaspase 6 at 10 to 30 uM after 24 hrs by Western blot analysis; type: functional, cell-based
HL-60 [24] = assay: Induction of apoptosis in human HL60 cells assessed as cleavage of procaspase 7 at 10 to 30 uM after 24 hrs by Western blot analysis; type: functional, cell-based
U-937 [25] = assay: Induction of apoptosis in human U937 cells assessed as cleavage of procaspase 7 at 10 to 30 uM after 24 hrs by Western blot analysis; type: functional, cell-based
HL-60 [26] = assay: Induction of apoptosis in human HL60 cells assessed as cleavage of procaspase 9 at 10 to 30 uM after 24 hrs by Western blot analysis; type: functional, cell-based
U-937 [27] = assay: Induction of apoptosis in human U937 cells assessed as cleavage of procaspase 9 at 10 to 30 uM after 24 hrs by Western blot analysis; type: functional, cell-based
HL-60 [28] = assay: Induction of apoptosis in human HL60 cells assessed as release of cytochrome c release from mitochondria at 10 to 30 uM after 24 hrs by Western blot analysis; type: functional, cell-based
U-937 [29] = assay: Induction of apoptosis in human U937 cells assessed as release of cytochrome c release from mitochondria at 10 to 30 uM after 24 hrs by Western blot analysis; type: functional, cell-based
HL-60 [30] = assay: Induction of apoptosis in human HL60 cells assessed as change in Bcl-2 protein level at 10 to 30 uM after 24 hrs by Western blot analysis; type: functional, cell-based
U-937 [31] = assay: Induction of apoptosis in human U937 cells assessed as change in Bcl-2 protein level at 10 to 30 uM after 24 hrs by Western blot analysis; type: functional, cell-based
HL-60 [32] = assay: Induction of apoptosis in human HL60 cells assessed as increase in Bax protein level at 10 to 30 uM after 24 hrs by Western blot analysis; type: functional, cell-based
U-937 [33] = assay: Induction of apoptosis in human U937 cells assessed as increase in Bax protein level at 10 to 30 uM after 24 hrs by Western blot analysis; type: functional, cell-based
HL-60 [34] = assay: Induction of apoptosis in human HL60 cells assessed as decrease in Bid protein level at 10 to 30 uM after 24 hrs by Western blot analysis; type: functional, cell-based
U-937 [35] = assay: Induction of apoptosis in human U937 cells assessed as decrease in Bid protein level at 10 to 30 uM after 24 hrs by Western blot analysis; type: functional, cell-based
HL-60 [36] = assay: Induction of apoptosis in human HL60 cells assessed as increase in caspase 3/7-mediated cleavage of DEVD-pNA at 30 uM after 24 hrs relative to control; type: functional
U-937 [37] = assay: Induction of apoptosis in human U937 cells assessed as increase in caspase 3/7-mediated cleavage of DEVD-pNA at 30 uM after 24 hrs relative to control; type: functional
MOLT-3 [38] = assay: Induction of apoptosis in human MOLT3 cells assessed as increase in caspase 3/7-mediated cleavage of DEVD-pNA at 30 uM after 24 hrs relative to control; type: functional
HL-60 [39] = assay: Induction of apoptosis in human HL60 cells assessed as increase in caspase 8-mediated cleavage of IETD-pNA at 30 uM after 24 hrs; type: functional, cell-based
U-937 [40] = assay: Induction of apoptosis in human U937 cells assessed as increase in caspase 8-mediated cleavage of IETD-pNA at 30 uM after 24 hrs; type: functional, cell-based
MOLT-3 [41] = assay: Induction of apoptosis in human MOLT3 cells assessed as increase in caspase 8-mediated cleavage of IETD-pNA at 30 uM after 24 hrs; type: functional, cell-based
HL-60 [42] = assay: Induction of apoptosis in human HL60 cells assessed as increase in caspase 9-mediated cleavage of LEHD-pNA at 30 uM after 24 hrs; type: functional, cell-based
U-937 [43] = assay: Induction of apoptosis in human U937 cells assessed as increase in caspase 9-mediated cleavage of LEHD-pNA at 30 uM after 24 hrs; type: functional, cell-based
MOLT-3 [44] = assay: Induction of apoptosis in human MOLT3 cells assessed as increase in caspase 9-mediated cleavage of LEHD-pNA at 30 uM after 24 hrs; type: functional, cell-based
HL-60 [45] = assay: Induction of apoptosis in human HL60 cells assessed as increase in hypodiploid cells at 30 uM after 24 hrs by propidium iodide staining-based flow cytometric analysis in presence of 100 uM caspase inhibition Z-VAD-fmk; type: functional, cell-based
HL-60 [46] = assay: Cell cycle in human HL60 cells at 30 uM after 24 hrs by flow cytometric analysis in presence of 100 uM caspase inhibition Z-VAD-fmk; type: functional, cell-based
HL-60 [47] = assay: Induction of apoptosis in human HL60 cells assessed as decrease in ROS level up to 12 hrs by H2-DCF-DA dye-based flow cytometric analysis; type: functional, cell-based

Q: Which results are given for `CC(C)[C@H]1CC[C@H](C)C[C@@H]1O[C@@H]1O[C@H](CO[C@@H]2O[C@H](COC(=O)c3ccc(Br)cc3)[C@@H](OC(=O)c3ccc(Br)cc3)[C@H](O)[C@H]2O)[C@@H](O)[C@H](O)[C@H]1O`?
A: Activity (HL-60 [1]): Dose-dependent effect; IC50 (HL-60 [1]): 14.9 µM; Activity (U-937 [2]): Dose-dependent effect; IC50 (U-937 [2]): 14.1 µM; Activity (MOLT-3 [3]): Dose-dependent effect; IC50 (MOLT-3 [3]): 12.6 µM; Activity (MCF7 [4]): Dose-dependent effect; IC50 (MCF7 [4]): 16 µM; Activity (HL-60 [5]): Active; Activity (U-937 [6]): Active; Activity (MOLT-3 [7]): Active; Activity (MCF7 [8]): Active; Activity (HL-60 [9]): Active; Activity (U-937 [10]): Active; Activity (MOLT-3 [11]): Active; Activity (HL-60 [12]): Active; Activity (U-937 [13]): Active; Activity (HL-60 [14]): Active; Activity (MOLT-3 [15]): Active; Activity (U-937 [16]): Active; Activity (MOLT-3 [17]): Active; Activity (HL-60 [18]): 56.9%; Activity (U-937 [19]): 23.2%; Activity (HL-60 [20]): Active; Activity (U-937 [21]): Active; Activity (HL-60 [22]): Active; Activity (U-937 [23]): Active; Activity (HL-60 [24]): Active; Activity (U-937 [25]): Active; Activity (HL-60 [26]): Active; Activity (U-937 [27]): Active; Activity (HL-60 [28]): Active; Activity (U-937 [29]): Active; Activity (HL-60 [30]): inactive; Activity (U-937 [31]): inactive; Activity (HL-60 [32]): Active; Activity (U-937 [33]): Active; Activity (HL-60 [34]): Active; Activity (U-937 [35]): Active; fold change (FC) (HL-60 [36]): >7; fold change (FC) (U-937 [37]): >7; fold change (FC) (MOLT-3 [38]): >7; Activity (HL-60 [39]): Active; Activity (U-937 [40]): Active; Activity (MOLT-3 [41]): Active; Activity (HL-60 [42]): Active; Activity (U-937 [43]): Active; Activity (MOLT-3 [44]): Active; Activity (HL-60 [45]): inactive; Activity (HL-60 [46]): inactive; Activity (HL-60 [47]): inactive

Q: With `CC(C)[C@@H]1CC[C@@H](C)C[C@H]1OC1O[C@H](CO[C@@H]2O[C@H](COC(=O)c3ccc(Br)cc3)[C@@H](OC(=O)c3ccc(Br)cc3)[C@H](O)[C@H]2O)[C@@H](O)[C@H](O)[C@H]1O` (single isomer, unassigned) as the compound, how does the Activity (HL-60 [1]) read?
A: Dose-dependent effect

Q: And the IC50 (HL-60 [1])?
A: 7 µM

Q: What about the Activity (U-937 [2]) of the same compound?
A: Dose-dependent effect

Q: What about the IC50 (U-937 [2]) of the same compound?
A: 5.8 µM

Q: And the Activity (MOLT-3 [3])?
A: Dose-dependent effect

Q: And the IC50 (MOLT-3 [3])?
A: 10.6 µM

Q: And the Activity (MCF7 [4])?
A: Dose-dependent effect

Q: And the IC50 (MCF7 [4])?
A: 12.1 µM

Q: What about the Activity (HL-60 [5]) of the same compound?
A: Active

Q: What about the Activity (U-937 [6]) of the same compound?
A: Active

Q: And the Activity (MOLT-3 [7])?
A: Active

Q: And the Activity (MCF7 [8])?
A: Active

Q: What about the Activity (HL-60 [9]) of the same compound?
A: Active

Q: What about the Activity (U-937 [10]) of the same compound?
A: Active

Q: And the Activity (MOLT-3 [11])?
A: Active

Q: What about the Activity (HL-60 [12]) of the same compound?
A: Active

Q: And the Activity (U-937 [13])?
A: Active

Q: What about the Activity (HL-60 [14]) of the same compound?
A: Active

Q: What about the Activity (MOLT-3 [15]) of the same compound?
A: Active

Q: What about the Activity (U-937 [16]) of the same compound?
A: Active

Q: And the Activity (MOLT-3 [17])?
A: Active
